Measurements as given in article PMC5645785 (Organic & biomolecular chemistry, 2016).
Read-outs that look alike come from different tables or passages of the source.

Experiments:
[1] = molecular target: Escherichia coli GS (EcGS) (Escherichia coli, UniProt P0A6U8); assay: EcGS activity, glycogen synthesis direction, absence of ADP; type: biochemical
[2] = molecular target: Sucrose synthase 4 (SuSy4) (Solanum tuberosum, UniProt P10691); assay: SuSy4 activity, sucrose synthesis direction, absence of UDP; type: biochemical, Solanum tuberosum L.
Sucrose synthase 4 (SuSy4), sequence (P10691 whole entry): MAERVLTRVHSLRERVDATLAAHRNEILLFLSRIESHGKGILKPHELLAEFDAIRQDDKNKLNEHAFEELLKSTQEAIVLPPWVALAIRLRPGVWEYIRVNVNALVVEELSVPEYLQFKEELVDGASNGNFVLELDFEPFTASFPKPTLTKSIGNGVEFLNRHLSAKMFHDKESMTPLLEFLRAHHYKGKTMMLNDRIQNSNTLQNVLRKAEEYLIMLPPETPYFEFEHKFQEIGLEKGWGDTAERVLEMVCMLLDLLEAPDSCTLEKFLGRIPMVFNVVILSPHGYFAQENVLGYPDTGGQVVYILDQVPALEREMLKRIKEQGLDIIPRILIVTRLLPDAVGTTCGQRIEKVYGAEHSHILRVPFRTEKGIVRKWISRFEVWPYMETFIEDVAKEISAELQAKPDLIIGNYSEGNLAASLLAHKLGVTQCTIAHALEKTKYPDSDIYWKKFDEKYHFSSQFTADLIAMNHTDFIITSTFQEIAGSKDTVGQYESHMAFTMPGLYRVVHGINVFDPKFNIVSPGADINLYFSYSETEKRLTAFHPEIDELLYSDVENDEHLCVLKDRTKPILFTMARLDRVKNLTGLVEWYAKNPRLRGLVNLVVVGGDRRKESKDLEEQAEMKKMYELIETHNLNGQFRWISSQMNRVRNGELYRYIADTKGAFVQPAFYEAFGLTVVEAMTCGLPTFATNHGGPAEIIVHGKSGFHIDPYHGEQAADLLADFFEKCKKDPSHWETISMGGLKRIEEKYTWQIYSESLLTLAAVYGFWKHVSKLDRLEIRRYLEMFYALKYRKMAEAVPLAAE

[3] = molecular target: T1, Rabbit muscle GPa (RMGPa) (Oryctolagus cuniculus, UniProt P00489); assay: RMGPa activity, glycogen phosphorolysis direction; type: biochemical; details: read-out: Km of RMGPa
T1 sequence (P00489 1-843): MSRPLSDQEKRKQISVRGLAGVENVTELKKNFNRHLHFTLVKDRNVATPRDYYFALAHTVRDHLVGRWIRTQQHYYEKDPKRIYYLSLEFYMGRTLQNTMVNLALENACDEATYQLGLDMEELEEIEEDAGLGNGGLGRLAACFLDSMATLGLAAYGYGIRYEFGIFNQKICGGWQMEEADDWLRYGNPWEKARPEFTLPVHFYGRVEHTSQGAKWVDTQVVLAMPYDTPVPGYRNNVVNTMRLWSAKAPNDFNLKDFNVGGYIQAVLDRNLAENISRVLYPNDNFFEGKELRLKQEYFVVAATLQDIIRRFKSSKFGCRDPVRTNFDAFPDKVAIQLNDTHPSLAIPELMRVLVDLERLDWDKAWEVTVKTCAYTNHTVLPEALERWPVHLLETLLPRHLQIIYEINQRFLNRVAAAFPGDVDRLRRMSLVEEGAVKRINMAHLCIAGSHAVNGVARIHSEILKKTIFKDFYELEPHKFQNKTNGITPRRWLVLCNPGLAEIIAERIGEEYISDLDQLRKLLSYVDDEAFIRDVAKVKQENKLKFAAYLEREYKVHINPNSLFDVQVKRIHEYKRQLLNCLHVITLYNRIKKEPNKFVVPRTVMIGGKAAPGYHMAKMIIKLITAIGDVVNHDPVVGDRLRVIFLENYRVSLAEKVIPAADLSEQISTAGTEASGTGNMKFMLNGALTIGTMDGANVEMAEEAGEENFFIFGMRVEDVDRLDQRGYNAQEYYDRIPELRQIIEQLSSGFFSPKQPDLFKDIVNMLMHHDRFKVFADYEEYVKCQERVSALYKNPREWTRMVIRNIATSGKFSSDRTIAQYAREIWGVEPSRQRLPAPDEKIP

[4] = tested on: E. coli trehalose-6-phosphate synthase; details: cited from earlier work; for IC50: read-out: IC50 trehalose-6-phosphate synthase

Escherichia coli GS (EcGS), sequence (P0A6U8 whole entry): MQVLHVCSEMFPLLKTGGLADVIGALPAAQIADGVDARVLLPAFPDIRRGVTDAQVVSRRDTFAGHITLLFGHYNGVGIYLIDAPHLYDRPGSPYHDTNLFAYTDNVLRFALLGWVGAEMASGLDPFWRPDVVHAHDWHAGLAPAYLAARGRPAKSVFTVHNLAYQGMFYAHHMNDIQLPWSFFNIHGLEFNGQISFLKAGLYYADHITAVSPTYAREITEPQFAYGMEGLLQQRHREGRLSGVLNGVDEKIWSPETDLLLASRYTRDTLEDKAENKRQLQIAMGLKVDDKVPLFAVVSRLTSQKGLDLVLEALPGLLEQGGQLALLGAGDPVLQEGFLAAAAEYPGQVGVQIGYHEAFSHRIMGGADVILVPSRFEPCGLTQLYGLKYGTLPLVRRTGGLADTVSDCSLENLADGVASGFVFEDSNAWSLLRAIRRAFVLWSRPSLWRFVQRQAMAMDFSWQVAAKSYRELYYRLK

In the case of Nc1ncnc2c1ncn2[C@@H]1O[C@H](COP(=O)(O)OP(=O)(O)O)[C@@H](O)[C@H]1O [ADP], the Ki ([1]; read-out: Ki EcGS, substrate ADPG) is reported as 87 ± 6 µM and the “Type of Inhibition EcGS” value ([1]; with respect to ADPG) is reported as “Competitive”.

For OC[C@H]1NC[C@@H](O)[C@@H]1O [DAB, 1,4-dideoxy-1,4-imino-D-arabinitol], the IC50 [2] was 246.5 ± 0.1 µM and the IC50 [1] was 1320 ± 10 µM.

With OC[C@@H]1NC[C@H](O)[C@H]1O [LAB] the “Activity (%) SuSy4” value ([2]; remaining activity, 0.5 mM inhibitor, 5 mM UDPG and 30 mM fructose) was 89% and the “Activity (%) EcGS” value ([1]; remaining activity, 0.5 mM inhibitor, 2 mM ADPG and 4 mg mL−1 glycogen) was 89%.

For O=P(O)(O)O [Pi, inorganic phosphate], the Km [3] was 1410 µM.

For O=c1ccn([C@@H]2O[C@H](COP(=O)(O)OP(=O)(O)O)[C@@H](O)[C@H]2O)c(=O)[nH]1 [UDP], the Ki ([2]; read-out: Ki SuSy4, substrate UDPG) was 145 ± 48 µM and the “Type of Inhibition SuSy4” value ([2]; with respect to UDPG) was “Competitive”.

In the case of validoxylamine-6′-phosphate, the “improvement of IC50 by UDP” value ([4]; 0.15 mM UDP) is given as “ca. 100 fold”, the IC50 ([4]; addition of 0.15 mM UDP) is given as 41 µM and the IC50 ([4]; without UDP) is given as 5300 µM.
